The values below come from patent US10273243B2, “4-phenylpiperidines, their preparation and use” (The Trustees of Columbia University in the City of New York, priority 2013, dated 2019).

One may read the melting point as the temperature, or range, at which the solid turns liquid.

The test system of one series is RBP4-TTR interaction. The following applies: cited from earlier work.
For series [1] the following is noted: cited from earlier work.
Series [2] has as its system retinal pigment epithelium cells. The following applies: many cell types, including the retinal pigment epithelium cells; cited from earlier work.
The target of a further series is RBP4 (Homo sapiens, UniProt P02753). The following applies: cited from earlier work.
The next series relates to serum RBP4 and retinol. The following applies: in vivo; cited from earlier work.
For another series, the system named is Abca4−/− mice. The following applies: animal model of excessive bisretinoid accumulation; cited from earlier work.

For the molecule `Cc1nnsc1C(=O)N1CCC(c2ccccc2C(F)(F)F)CC1` [Example 84, (4-Methyl-1,2,3-thiadiazol-5-yl)(4-(2-(trifluoromethyl)phenyl)piperidin-1-yl)methanone], the melting point fell in the range of 141 to 143 °C. `Cc1ccc(C(=O)N2CCC(c3ccccc3C(F)(F)F)CC2)nn1` [Example 85, (6-Methylpyridazin-3-yl)(4-(2-(trifluoromethyl)phenyl)piperidin-1-yl)methanone] had a melting point of 144 to 148 °C. As to `COc1ccc(C(=O)N2CCC(c3ccccc3C(F)(F)F)CC2)nn1` [Example 86, (6-Methoxypyridazin-3-yl)(4-(2-(trifluoromethyl)phenyl)piperidin-1-yl)methanone], the melting point lay in the range of 122 to 125 °C. Turning to `O=C(c1cnccn1)N1CCC(c2ccccc2C(F)(F)F)CC1` [Example 87, Pyrazin-2-yl(4-(2-(trifluoromethyl)phenyl)piperidin-1-yl)methanone], the melting point is 109 to 111 °C. On to `O=C(c1cnn[nH]1)N1CCC(c2ccccc2C(F)(F)F)CC1` [Example 88, (1H-1,2,3-Triazol-5-yl)(4-(2-(trifluoromethyl)phenyl)piperidin-1-yl)methanone], for which the melting point was 235 to 239 °C (dec.). `Cc1nc2ccc(Cl)nn2c1C(=O)N1CCC(c2ccccc2C(F)(F)F)CC1` [Example 89, (6-Chloro-2-methylimidazol[1,2-b]pyridazin-3-yl)(4-(2-(trifluoromethyl)phenyl)piperidin-1-yl)methanone] displayed a melting point of 147 to 150 °C. The molecule `O=C(c1ccn[nH]1)N1CCC(c2ccccc2C(F)(F)F)CC1` [Example 90, (1H-pyrazol-5-yl)(4-(2-(trifluoromethyl)phenyl)piperidin-1-yl)methanone] returned a melting point of 167 to 170 °C. Same read-out and setting: as for `NC(=O)c1ccc(C(=O)N2CCC(c3ccccc3C(F)(F)F)CC2)cc1` [Example 92, 4-(4-(2-(Trifluoromethyl)phenyl)piperidine-1-carbonyl)benzamide], the figure is 188 to 190 °C. Same read-out and setting: as for `NC(=O)c1cccc(C(=O)N2CCC(c3ccccc3C(F)(F)F)CC2)c1` [Example 93, 3-(4-(2-(Trifluoromethyl)phenyl)piperidine-1-carbonyl)benzamide], the figure is 192 to 194 °C; as for `CC(=O)N1CCCC1C(=O)N1CCC(c2ccccc2C(C)(C)C)CC1` (stereo not shown) [Example 97, 1-(2-(4-(2-(Tert-butyl)phenyl)piperidine-1-carbonyl)pyrrolidin-1-yl)ethanone], 50 to 60 °C; as for `CC(C)(C)c1ccccc1C1CCN(C(=O)[C@H]2C[C@@H](O)CN2)CC1` [Example 98, (4-(2-(Tert-butyl)phenyl)piperidin-1-yl)((2R,4R)-4-hydroxypyrrolidin-2-yl)methanone], 65 to 75 °C. The molecule `CC(C)(C)c1ccccc1C1CCN(C(=O)C2CCCS2(=O)=O)CC1` (stereo not shown) [Example 100, (4-(2-(tert-butyl)phenyl)piperidin-1-yl)(1,1-dioxidotetrahydrothiophen-2-yl)methanone] displayed a melting point of 80 to 84 °C. The molecule `NS(=O)(=O)Oc1ccccc1CC(=O)N1CCC(c2ccccc2C(F)(F)F)CC1` [Example 102, 2-(2-Oxo-2-(4-(2-(trifluoromethyl)phenyl)piperidin-1-yl)ethyl)phenylsulfamate] yielded a melting point of 170 to 173 °C. Still for that read-out and setting: as for `CC1(C(=O)N2CCC(c3ccccc3C(F)(F)F)CC2)COC1` [Example 103, (3-Methyloxetan-3-yl)(4-(2-(trifluoromethyl)phenyl)piperidin-1-yl)methanone], the figure is 100 to 102 °C. As for `CC1=C(/C=C/C(C)=C/C=C/C(C)=C/C(=O)Nc2ccc(O)cc2)C(C)(C)CCC1` [fenretinide, N-(4-hydroxy-phenyl)retinamide], the “disruption of RBP4-TTR interaction” value with RBP4-TTR interaction is “disrupt the RBP4-TTR interaction”. The formation of hemangiosarcomas entry in series [1] (mice) is “stimulate formation of hemangiosarcomas”. For the same molecule, in series [1] (mouse, in vivo), the selectivity and toxicity entry was “non-selective and toxic”; the teratogenicity entry is recorded as “teratogenic”. In addition, the induction of apoptosis result in series [2] is “extremely active inducer of apoptosis”. In addition, on RBP4, the “binding to RBP4” value is on record as “bind to RBP4” and the “displacement of all-trans retinol from RBP4” value is given as “displace all-trans retinol from RBP4”. Further, in the series on serum RBP4 and retinol, the “ocular all-trans retinol uptake” value was “inhibit ocular all-trans retinol uptake”; the “serum RBP4 and retinol” value was “reduce serum RBP4 and retinol”; the visual cycle result is reported as “slow down the visual cycle”. Besides, the A2E production entry in the series on Abca4−/− mice is “reduced A2E production”.
